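Step 1: Grow cells in 96-well plates. Step 2: Expose to compound for 48 hours at 5 concentrations. Step 3: Interpolate endpoints linearly; if unreached, use highest concentration. Here, GI50 denotes the concentration required for 50% inhibition of growth.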 Calls of active or inactive are those of the source. Cut-off read from the data, not from the text of the source: active = GI50 up to about 1.1 µM and inactive = higher. Non-standard residues stand in square brackets, D forms with d. Residues, ends and D or L forms follow the SMILES beside them. ξ: configuration not given here. *: point of attachment. NMeF = CN[C@@H](Cc1ccccc1)C(=O)O; NMeN = CN[C@@H](CC(N)=O)C(=O)O; NMeV = CN[C@H](C(=O)O)C(C)C; ξNMeV = CNC(C(=O)O)C(C)C; Boc = CC(C)(C)OC(=O)*; ξNMeA = CNC(C)C(=O)O; ξV = CC(C)C(N)C(=O)O
Legend:
Test in all cases: DTP human tumour cell line panel, 48 h
M14 = test system: M14
RPMI-8226 = test system: RPMI-8226
DLD-1 = test system: DLD-1
U-251 = test system: U-251
NCI-H226 = test system: NCI-H226
UACC-62 = test system: UACC-62
OVCAR-5 = test system: OVCAR-5
SNB-75 = test system: SNB-75
BT-549 = test system: BT-549
KM12 = test system: KM12
NCI-H23 = test system: NCI-H23
SK-OV-3 = test system: SK-OV-3
K562 = test system: K562
HCC 2998 = test system: HCC 2998
T47D = test system: T47D
DU-145 = test system: DU-145
SF-295 = test system: SF-295
A549 = test system: A549
SW-620 = test system: SW-620
OVCAR-3 = test system: OVCAR-3

SMILES | GI50 (M14) | GI50 (RPMI-8226) | GI50 (DLD-1) | GI50 (U-251) | GI50 (NCI-H226) | GI50 (UACC-62) | GI50 (OVCAR-5) | GI50 (SNB-75) | GI50 (BT-549) | GI50 (KM12) | GI50 (NCI-H23) | GI50 (SK-OV-3) | GI50 (K562) | GI50 (HCC 2998) | GI50 (T47D) | GI50 (DU-145) | GI50 (SF-295) | GI50 (A549) | GI50 (SW-620) | GI50 (OVCAR-3)
Cc1cc(NC(=O)NC(=O)c2ccccc2[N+](=O)[O-])ccc1Oc1ncc(Cl)cn1 | 0.0782 µM (active) | 0.223 µM (active) | 0.0783 µM (active) | 0.0916 µM (active) | 0.232 µM (active) | 0.0551 µM (active) | 16.5 µM (inactive) | 0.0456 µM (active) | 29.4 µM (inactive) | 0.0519 µM (active) | 0.222 µM (active) | 0.0575 µM (active) | 0.037 µM (active) | 0.146 µM (active) | 34.1 µM (inactive) | 1.81 µM (inactive) | 0.0598 µM (active) | 0.125 µM (active) | 0.0501 µM (active) | 0.0361 µM (active)
COC(=O)C(C)N(C)C(=O)[C@H](CC(N)=O)N(C)C(=O)[C@@H]1CCCN1C(=O)[C@H](C(C)C)N(C)C(=O)C(C(C)C)N(C)C(=O)[C@H](Cc1ccccc1)N(C)C(=O)C(NC(=O)OC(C)(C)C)C(C)C (some centres not stated) (Boc-[ξV][NMeF][ξNMeV][NMeV]P[NMeN][ξNMeA]-OMe) | 15.9 µM (inactive) | 12.4 µM (inactive) | 17.8 µM (inactive) | 11.2 µM (inactive) | 12.1 µM (inactive) | 10.2 µM (inactive) | > 50 µM (inactive) | 6.17 µM (inactive) | 12.1 µM (inactive) | 11.2 µM (inactive) | 17.6 µM (inactive) | 46.2 µM (inactive) | 16.9 µM (inactive) | 18.8 µM (inactive) | 19.5 µM (inactive) | 28.8 µM (inactive) | 12 µM (inactive) | > 50 µM (inactive) | 28.1 µM (inactive) | 12.5 µM (inactive)
O=S(=O)(Sc1ccc(Cl)cc1)c1ccc(Cl)cc1 | 17.5 µM (inactive) | 22.6 µM (inactive) | 16.7 µM (inactive) | 10.3 µM (inactive) | 16.7 µM (inactive) | 16.6 µM (inactive) | 19.9 µM (inactive) | 17.7 µM (inactive) |  | 14.7 µM (inactive) | 16 µM (inactive) | 44.7 µM (inactive) | 19.9 µM (inactive) | 17.6 µM (inactive) |  |  | 12.2 µM (inactive) | 12.2 µM (inactive) | 17.6 µM (inactive) | 15.5 µM (inactive)
CC1=C(O)C(=O)C2C(=O)C1C(C)C2c1ccccc1 (configuration not stated) | > 100 µM (inactive) | > 100 µM (inactive) | > 100 µM (inactive) | > 100 µM (inactive) | > 100 µM (inactive) | > 100 µM (inactive) | > 100 µM (inactive) | > 100 µM (inactive) |  | > 100 µM (inactive) | > 100 µM (inactive) | > 100 µM (inactive) | > 100 µM (inactive) | > 100 µM (inactive) |  |  | > 100 µM (inactive) | > 100 µM (inactive) | > 100 µM (inactive) | > 100 µM (inactive)
Cc1ccccc1NC(=O)C(=O)CC(=O)c1c(C)[n+]([O-])c2ccccc2[n+]1[O-] | > 100 µM (inactive) | > 100 µM (inactive) | > 100 µM (inactive) | > 100 µM (inactive) | > 100 µM (inactive) | > 100 µM (inactive) | > 100 µM (inactive) | 40 µM (inactive) |  | 59.8 µM (inactive) | > 100 µM (inactive) | > 100 µM (inactive) | > 100 µM (inactive) | > 100 µM (inactive) |  |  | > 100 µM (inactive) | > 100 µM (inactive) | > 100 µM (inactive) | > 100 µM (inactive)
C[C@]12CCc3nonc3C1CC[C@@H]1C2CC[C@]2(C)C(=O)/C(=N\O)CC12 (some centres not stated) | > 100 µM (inactive) | > 100 µM (inactive) | > 100 µM (inactive) | > 100 µM (inactive) | > 100 µM (inactive) | > 100 µM (inactive) | > 100 µM (inactive) | 28.1 µM (inactive) |  | > 100 µM (inactive) | > 100 µM (inactive) | > 100 µM (inactive) | > 100 µM (inactive) | > 100 µM (inactive) |  |  | > 100 µM (inactive) | > 100 µM (inactive) | > 100 µM (inactive) | > 100 µM (inactive)
Cc1c(NC(=S)NC(=O)c2ccc([N+](=O)[O-])cc2)c(=O)n(-c2ccccc2)n1C | > 100 µM (inactive) | > 100 µM (inactive) | > 100 µM (inactive) | > 100 µM (inactive) | > 100 µM (inactive) | > 100 µM (inactive) | > 100 µM (inactive) | > 100 µM (inactive) |  | > 100 µM (inactive) | > 100 µM (inactive) | > 100 µM (inactive) | > 100 µM (inactive) | > 100 µM (inactive) |  |  | > 100 µM (inactive) | > 100 µM (inactive) | > 100 µM (inactive) | > 100 µM (inactive)
Nc1nc2c(-c3ccc([N+](=O)[O-])cc3)nnn2c2ccccc12 | > 100 µM (inactive) | > 100 µM (inactive) | > 100 µM (inactive) | 17.9 µM (inactive) | > 100 µM (inactive) | > 100 µM (inactive) | > 100 µM (inactive) | > 10 µM (inactive) |  | > 100 µM (inactive) | 37.2 µM (inactive) | 51.4 µM (inactive) | > 100 µM (inactive) | > 100 µM (inactive) |  |  | 62.1 µM (inactive) | > 100 µM (inactive) | > 100 µM (inactive) | 29.6 µM (inactive)
COC(=O)/C(=C/c1ccc(OC)cc1)c1cc(OC)c(OC)c(OC)c1 | 1.06 µM (active) | 2.52 µM (inactive) | 2.61 µM (inactive) | 2 µM (inactive) | 6.55 µM (inactive) | 0.631 µM (active) | 14.9 µM (inactive) | 1.29 µM (inactive) | 34 µM (inactive) | 0.521 µM (active) | 2.84 µM (inactive) | 1.34 µM (inactive) | 0.366 µM (active) | 10.7 µM (inactive) | 7.13 µM (inactive) | 1.69 µM (inactive) | 0.706 µM (active) | 2.99 µM (inactive) | 0.643 µM (active) | 0.527 µM (active)

— ChEMBL document CHEMBL1201862, “PubChem BioAssay data set” (2004)
